Experimental data from patent EP0156785A1, “2-(Aminoalkyl)-acrylophenones, their preparation and their use” (S.A.R.L. GALEPHAR, priority 1984, dated 1985).

Legend:
rat = experiment: Triton WR 1339-induced hyperlipidaemia in the rat (plasma triglycerides and cholesterol); format: in vivo; settings: Triton WR 1339 175 mg/kg (IV), plasma 24 h after Triton
Procedure: Cette propriété a été mise en évidence chez le rat au moyen de la méthode utilisant le Triton WR 1339 comme inducteur d'hyperlipémie.
Quatre heures après l'injection I.V. aux rats de 175 mg de Triton WR 1339 par kg de poids corporel, on leur injecte par voie intrapéritonéale soit du sérum physiologique (témoins) soit la substance à étudier. Les rats sont sacrifiés 24 heures après l'injection du Triton WR 1339 et les plasmas recueillis pour les dosages (résultats : Tableau I) des triglycérides et du cholestérol.

plaquettes = experiment: Platelet anti-aggregation activity, aggregation induced by adenosine triphosphate; format: cell-based; settings: dose reducing platelet aggregation by 50%; inducer adénosine triphosphate; read-out: D.E.50 (the source's name)
Excerpt: Les propriétés antiagrégantes plaquettaires des acrylophénones de la présente invention ont été mises en évidence au moyen d'adénosine triphosphate choisi comme agent inducteur de l'agrégation plaquettaire.
Les doses efficaces réduisant de 50% l'agrégation des plaquettes (D.E.50) ont été déterminées (Tableau II). Ces résultats montrent que les substances agissent à des doses de l'ordre micromolaire.

[1] = Qualitative solubility of the isolated product; format: physicochemical
Procedure: 3 g (0,1 M) de trioxyméthylène et 8,65 g (0,05 M) de dichlorhydrate de N-méthylpipérazine sont ajoutés à 6 g d'acétophénone dans 20 ml d'acide acétique. Le mélange est chauffé à reflux pendant 3 h. Le solvant est éliminé et le résidu jaune huileux est dissous dans 50 ml d'éthanol. Après élimimation du solvant, le résidu cristallise dans du méthanol.

[2] = treatment 2 mg/kg (IP) 4 h after Triton
[3] = treatment 4 mg/kg (IP) 4 h after Triton

Row | Structure (SMILES) | Diminution(%)sous l'influence du traitement cholestérolémie (rat; [2]) | Diminution(%)sous l'influence du traitement triglycéridémie (rat; [2]) | IC50 (plaquettes) | Diminution(%)sous l'influence du traitement cholestérolémie (rat; [3]) | Diminution(%)sous l'influence du traitement triglycéridémie (rat; [3]) | solubilité dans l'acétone ([1]; acetone) | solubilité dans l'alcool ([1]; alcohol) | solubilité dans l'eau ([1]; water)
1 | C=C(CN(C)C)C(=O)c1ccccc1 [chlorhydratede 2-(N,N-diméthylaminométhyl)-acrylophénone] | 48% | 36,5% | 1130 nM | – | – | – | – | –
2 | C=C(CN1CCN(C)CC1)C(=O)c1ccccc1 [Exemple 1, Dichlorhydratede 2-(4-méthyl-1-pipérazinylméthyl)acrylophénone] | – | – | 1320 nM | 57,5% | 47% | pratiquement insoluble dans l'acétone | peu soluble dans l'alcool | très soluble dans l'eau
3 | C=C(CN1CCOCC1)C(=O)c1ccccc1 [chlorhydratede 2-(1-morpholinométhyl)-acrylophénone] | – | – | 1940 nM | 51,0% | 44,5% | – | – | –
